From patent US7109193B2, “Tricyclic diazepines tocolytic oxytocin receptor antagonists” (Wyeth, priority 2001, dated 2006)

Biological target: T1, human vasopressin V1a receptor subtype (Homo sapiens, UniProt P37288)
T1 construct: host or cells: CHO cells (pZeoSV vector for the Thibonnier line)
Assay: Vasopressin binding in Chinese Hamster Ovary cell membranes expressing human vasopressin V1a subtype receptors
Conditions: 100 nM, CHO cell membranes, [3H]Manning ligand, values without parentheses
Summary of the method: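 Membranes from CHO cells expressing human V1a receptor were incubated with [3H]Manning ligand (added as 20 μL of 8 nM) in pH 7.4 Tris buffer with MgCl2, BSA and protease inhibitors, 60 min at room temperature. Bound radioactivity was counted after filtration; values are percent inhibition at a stated concentration or IC50.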

T1 sequence (P37288 whole entry): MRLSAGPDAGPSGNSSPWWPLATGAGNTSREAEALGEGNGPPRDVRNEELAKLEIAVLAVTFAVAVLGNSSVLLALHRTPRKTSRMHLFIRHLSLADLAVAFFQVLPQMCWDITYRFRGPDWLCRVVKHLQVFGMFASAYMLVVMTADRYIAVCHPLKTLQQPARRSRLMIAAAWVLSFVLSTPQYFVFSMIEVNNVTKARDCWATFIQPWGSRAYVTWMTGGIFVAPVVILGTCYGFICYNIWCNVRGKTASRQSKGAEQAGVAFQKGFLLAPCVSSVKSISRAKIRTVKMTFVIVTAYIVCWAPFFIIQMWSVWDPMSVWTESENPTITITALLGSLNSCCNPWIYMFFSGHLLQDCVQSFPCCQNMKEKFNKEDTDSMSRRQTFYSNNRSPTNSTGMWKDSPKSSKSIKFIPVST

SMILES	inhibition at 0.1 µM [%]
Cc1cc(C(=O)N2Cc3ccc(C(=O)N(C)C4CCN(C)CC4)n3Cc3ccccc32)ccc1-c1ccccc1C(F)(F)F [Example 184, N-Methyl-N-(1-methyl-4-piperidinyl)-10-{[2-methyl-2′-(trifluoromethyl)[1,1′-biphenyl]-4-yl]carbonyl}-10,11-dihydro-5H-pyrrolo[2,1-c][1,4]benzodiazepine-3-carboxamide]	0
COc1cccc(-c2ccc(C(=O)N3Cc4ccc(C(=O)NCCC5CCCN5C)n4Cc4ccccc43)cc2OC)c1 (stereo not shown) [Example 172, 10-[(2,3′-Dimethoxy[1,1′-biphenyl]-4-yl)carbonyl]-N-[2-(1-methyl-2-pyrrolidinyl)ethyl]-10,11-dihydro-5H-pyrrolo[2,1-c][1,4]benzodiazepine-3-carboxamide]	43
COc1cccc(-c2cc(OC)c(C(=O)N3Cc4ccc(C(=O)NCCC5CCCN5C)n4Cc4ccccc43)cc2Cl)c1 (stereo not shown) [Example 169, 10-[(6-Chloro-3,3′-dimethoxy[1,1′-biphenyl]-4-yl)carbonyl]-N-[2-(1-methyl-2-pyrrolidinyl)ethyl]-10,11-dihydro-5H-pyrrolo[2,1-c][1,4]benzodiazepine-3-carboxamide]	9
COc1cc(C(=O)N2Cc3ccc(C(=O)NCCN4CCCCC4)n3Cc3ccccc32)ccc1-c1cccc2ccccc12 [Example 157, 10-[3-Methoxy-4-(1-naphthyl)benzoyl]-N-[2-(1-piperidinyl)ethyl]-10,11-dihydro-5H-pyrrolo[2,1-c][1,4]benzodiazepine-3-carboxamide]	5
Cc1ccccc1-c1ccc(C(=O)N2Cc3ccc(C(=O)N4CCN(CCN(C)C)CC4)n3Cc3ccccc32)cc1 [Example 200, {4-[2-(Dimethylamino)ethyl]-1-piperazinyl}{10-[(2′-methyl[1,1′-biphenyl]-4-yl)carbonyl]-10,11-dihydro-5H-pyrrolo[2,1-c][1,4]benzodiazepin-3-yl}methanone]	64
C=CCN1CCN(C(=O)c2ccc3n2Cc2ccccc2N(C(=O)c2ccc(-c4ccccc4OC)c(C)c2)C3)CC1 [Example 222, (4-Allyl-1-piperazinyl){10-[(2′-methoxy-2-methyl[1,1′-biphenyl]-4-yl)carbonyl]-10,11-dihydro-5H-pyrrolo[2,1-c][1,4]benzodiazepin-3-yl}methanone]	15
COc1cccc(-c2cc(OC)c(C(=O)N3Cc4ccc(C(=O)N(C)C5CCN(C)C5)n4Cc4ccccc43)cc2Cl)c1 (stereo not shown) [Example 191, 10-[(6-Chloro-3,3′-dimethoxy[1,1′-biphenyl]-4-yl)carbonyl]-N-methyl-N-(1-methyl-3-pyrrolidinyl)-10,11-dihydro-5H-pyrrolo[2,1-c][1,4]benzodiazepine-3-carboxamide]	41
COc1ccccc1-c1ccc(C(=O)N2Cc3ccc(C(=O)N(C)C4CCN(C)C4)n3Cc3ccccc32)cc1OC (stereo not shown) [Example 193, 10-[(2,2′-Dimethoxy[1,1′-biphenyl]-4-yl)carbonyl]-N-methyl-N-(1-methyl-3-pyrrolidinyl)-10,11-dihydro-5H-pyrrolo[2,1-c][1,4]benzodiazepine-3-carboxamide]	41
COc1ccccc1-c1ccc(C(=O)N2Cc3ccc(C(=O)N4CCN(C(C)C)CC4)n3Cc3ccccc32)cc1 [Example 234, (4-Isopropyl-1-piperazinyl){10-[(2′-methoxy[1,1′-biphenyl]-4-yl)carbonyl]-10,11-dihydro-5H-pyrrolo[2,1-c][1,4]benzodiazepin-3-yl}methanone]	26
CN(C)CCN1CCN(C(=O)c2ccc3n2Cc2ccccc2N(C(=O)c2ccc(-c4cccc5ccccc45)cc2Cl)C3)CC1 [Example 205, {10-[2-Chloro-4-(1-naphthyl)benzoyl]-10,11-dihydro-5H-pyrrolo[2,1-c][1,4]benzodiazepin-3-yl}{4-[2-(dimethylamino)ethyl]-1-piperazinyl}methanone]	-6
Cc1cc(C(=O)N2Cc3ccc(C(=O)NCCC4CCCN4C)n3Cc3ccccc32)ccc1-c1ccccc1C(F)(F)F (stereo not shown) [Example 174, N-[2-(1-Methyl-2-pyrrolidinyl)ethyl]-10-{[2-methyl-2′-(trifluoromethyl)[1,1′-biphenyl]-4-yl]carbonyl}-10,11-dihydro-5H-pyrrolo[2,1-c][1,4]benzodiazepine-3-carboxamide]	8
Cc1cc(C(=O)N2Cc3ccc(C(=O)N4CCN(C(=O)OC(C)(C)C)CC4)n3Cc3ccccc32)ccc1-c1ccccc1C(F)(F)F [Example 6, 4-[[10,11-Dihydro-10-[[2-methyl-2′-trifluoromethyl[1,1′-biphenyl]-4-yl]carbonyl]-5H-pyrrolo[2,1-c][1,4]benzodiazepin-3-yl]carbonyl]-1-piperazine-carboxylic acid, tert-butyl ester]	2
Cc1cc(C(=O)N2Cc3ccc(C(=O)N4CCN(CCN5CCOCC5)CC4)n3Cc3ccccc32)ccc1-c1ccccc1C(F)(F)F [Example 216, (10-{[2-Methyl-2′-(trifluoromethyl)[1,1′-biphenyl]-4-yl]carbonyl}-10,11-dihydro-5H -pyrrolo[2,1-c][1,4]benzodiazepin-3-yl){4-[2-(4-morpholinyl)ethyl]-1-piperazinyl}methanone]	10
C=CCN1CCN(C(=O)c2ccc3n2Cc2ccccc2N(C(=O)c2cc(Cl)c(-c4cccc(OC)c4)cc2OC)C3)CC1 [Example 226, (4-Allyl-1-piperazinyl){10-[(6-chloro-3,3′-dimethoxy[1,1′-biphenyl]-4-yl)carbonyl]-10,11-dihydro-5H-pyrrolo[2,1-c][1,4]benzodiazepin-3-yl}methanone]	3
COc1ccccc1-c1ccc(C(=O)N2Cc3ccc(C(=O)N4CCN(CCN5CCOCC5)CC4)n3Cc3ccccc32)cc1OC [Example 214, {10-[(2,2′-Dimethoxy[1,1′-biphenyl]-4-yl)carbonyl]-10,11-dihydro-5H-pyrrolo[2,1-c][1,4]benzodiazepin-3-yl}{4-[2-(4-morpholinyl)ethyl]-1-piperazinyl}methanone]	8
Cc1ccccc1-c1ccc(C(=O)N2Cc3ccc(C(=O)N4CCN(CCN(C)C)CC4)n3Cc3ccccc32)cc1C [Example 198, {4-[2-(Dimethylamino)ethyl]-1-piperazinyl}{10-[(2,2′-dimethyl[1,1′-biphenyl]-4-yl)carbonyl]-10,11-dihydro-5H-pyrrolo[2,1-c][1,4]benzodiazepin-3-yl}methanone]	50
COc1cccc(-c2ccc(C(=O)N3Cc4ccc(C(=O)NCCN5CCCCC5)n4Cc4ccccc43)cc2OC)c1 [Example 159, 10-[(2,3′-Dimethoxy[1,1′-biphenyl]-4-yl)carbonyl]-N-[2-(1-piperidinyl)ethyl]-10,11-dihydro-5H-pyrrolo[2,1-c][1,4]benzodiazepine-3-carboxamide]	44
Cc1ccccc1-c1ccc(C(=O)N2Cc3ccc(C(=O)N(C)C4CCN(C)C4)n3Cc3ccccc32)cc1 (stereo not shown) [Example 188, N-Methyl-10-[(2′-methyl[1,1′-biphenyl]-4-yl)carbonyl]-N-(1-methyl-3-pyrrolidinyl)-10,11-dihydro-5H-pyrrolo[2,1-c][1,4]benzodiazepine-3-carboxamide]	89
COc1cc(-c2ccccc2C)c(Cl)cc1C(=O)N1Cc2ccc(C(=O)NCCC3CCCN3C)n2Cc2ccccc21 (stereo not shown) [Example 168, 10-[(6-Chloro-3-methoxy-2′-methyl[1,1′-biphenyl]-4-yl)carbonyl]-N-[2-(1-methyl-2-pyrrolidinyl)ethyl]-10,11-dihydro-5H-pyrrolo[2,1-c][1,4]benzodiazepine-3-carboxamide]	8
COc1cccc(-c2ccc(C(=O)N3Cc4ccc(C(=O)N5CCN(C(C)C)CC5)n4Cc4ccccc43)cc2C)c1 [Example 235, (4-Isopropyl-1-piperazinyl){10-[(3′-methoxy-2-methyl[1,1′-biphenyl]-4-yl)carbonyl]-10,11-dihydro-5H-pyrrolo[2,1-c][1,4]benzodiazepin-3-yl}methanone]	9
Cc1ccccc1-c1ccc(C(=O)N2Cc3ccc(C(=O)NCCC4CCCN4C)n3Cc3ccccc32)cc1C (stereo not shown) [Example 163, 10-[(2,2′-Dimethyl[1,1′-biphenyl]-4-yl)carbonyl]-N-[2-(1-methyl-2-pyrrolidinyl)ethyl]-10,11-dihydro-5H-pyrrolo[2,1-c][1,4]benzodiazepine-3-carboxamide]	43
COc1ccccc1-c1ccc(C(=O)N2Cc3ccc(C(=O)N(C)C4CCN(C)C4)n3Cc3ccccc32)cc1 (stereo not shown) [Example 187, 10-[(2′-Methoxy[1,1′-biphenyl]-4-yl)carbonyl]-N-methyl-N-(1-methyl-3-pyrrolidinyl)-10,11-dihydro-5H-pyrrolo[2,1-c][1,4]benzodiazepine-3-carboxamide]	81
COc1cc(C(=O)N2Cc3ccc(C(=O)N4CCN(CCN(C)C)CC4)n3Cc3ccccc32)ccc1-c1cccc2ccccc12 [Example 203, {4-[2-(Dimethylamino)ethyl]-1-piperazinyl}{10-[3-methoxy-4-(1-naphthyl)benzoyl]-10,11-dihydro-5H-pyrrolo[2,1-c][1,4]benzodiazepin-3-yl}methanone]	4
COc1cc(C(=O)N2Cc3ccc(C(=O)N(C)C4CCN(C)C4)n3Cc3ccccc32)ccc1-c1cccc2ccccc12 (stereo not shown) [Example 192, 10-[3-Methoxy-4-(1-naphthyl)benzoyl]-N-methyl-N-(1-methyl-3-pyrrolidinyl)-10,11-dihydro-5H-pyrrolo[2,1-c][1,4]benzodiazepine-3-carboxamide]	31
COc1cccc(-c2cc(OC)c(C(=O)N3Cc4ccc(C(=O)N(C)C5CCN(C)CC5)n4Cc4ccccc43)cc2Cl)c1 [Example 181, 10-[(6-Chloro-3,3′-dimethoxy[1,1′-biphenyl]-4-yl)carbonyl]-N-methyl-N-(1-methyl4-piperidinyl)-10,11-dihydro-5H-pyrrolo[2,1-c][1,4]benzodiazepine-3-carboxamide]	23
